In US20110034380A1, “COMBINATION OF A SELECTIVE PPAR-GAMMA MODULATOR AND AN INCRETIN FOR THE TREATMENT OF DIABETES AND OBESITY” (priority 2009, published 2011):

Assay: Stability of polymorph Form II of the besylate salt
Type: physicochemical
Conditions: exemplary Form II polymorph, solid form
Procedure: In some embodiments, Form II of the besylate salt of compound 101 (2,4-Dichloro-N-[3,5-dichloro-4-(quinolin-3-yloxy)-phenyl]-benzenesulfonamide benzenesulfonate salt) is used. […] In some embodiments, the Form II polymorph can have a melting point between about 230 and 240° C. […] For example, particular Form II polymorphs can have major X-ray powder diffraction pattern peaks at 15, 19, 20.5, 23.5, 24.5, 25, 26.5, 29.5 and 30.5° 2θ using Cu Kα radiation. In certain embodiments, the Form II polymorph can have major X-ray powder diffraction pattern peaks at one, two, three, four, five, six, seven or eight of the X-ray powder diffraction pattern peaks at 15, 19, 20.5, 23.5, 24.5, 25, 26.5, 29.5 and 30.5° 2θ using Cu Kα radiation. In certain embodiments, the Form II polymorph of the invention can have both a melting point between about 230 and 240° C. and major X-ray powder diffraction pattern peaks at one, two, three, four, five, six, seven or eight of the X-ray powder diffraction pattern peaks at 15, 19, 20.5, 23.5, 24.5, 25, 26.5, 29.5 and 30.5° 2θ using Cu Kα radiation. In further embodiments, the Form II polymorph can have major infrared absorbance peaks at one, two, three, four, or five of the infrared absorbance peaks at 1573, 1469, 1459, 912, and 859 cm^−1.

O=S(=O)(Nc1cc(Cl)c(Oc2cnc3ccccc3c2)c(Cl)c1)c1ccc(Cl)cc1Cl.O=S(=O)(O)c1ccccc1 [2,4-Dichloro-N-[3,5-dichloro-4-(quinolin-3-yloxy)-phenyl]-benzenesulfonamide benzenesulfonate salt]
stability of the polymorph: surprising stability
